Results on 25 molecules are retold here after patent publication US9688702B2, “Alpha-amino boronic acid derivatives, selective immunoproteasome inhibitors” (Ares Trading S.A, priority 2011, dated 2017).

Experiment [1] addresses LMP7 (purified human immuno proteasome) (Homo sapiens, UniProt P28062). The experiment is described as follows: Determination of LMP7 activity (fluorescence intensity assay, Suc-LLVY-AMC). In kind it is biochemical. To be noted: for IC50: purified human immuno proteasome 0.5 nM, 40 μM Suc-LLVY-AMC, 37° C. The method, then: Measurement of LMP7 inhibition is performed in 384 well format based on fluorescence intensity assay.
Purified human immuno proteasome (0.5 nM) and serial diluted compounds in DMSO (range of concentrations from 10 μM to 38 pM) or controls (0.5% DMSO) are incubated for 30 minutes at 37° C. in assay buffer containing 50 mM Tris pH 7.4 and 0.03% SDS. The reaction is initiated by the addition of the fluorogenic peptide substrate, Suc-LLVY-AMC (Bachem I-1395), at a concentration of 40 μM. After 90 minutes of incubation at 37° C., fluorescence intensity is measured at λex=350 nm and λem=450 nm with a fluorescence reader (BMG Pherastar reader or equivalent).
Purified human immuno proteasome (0.25 nM) and serial diluted compounds in DMSO (range of concentrations from 10 μM to 38 pM) or controls (0.5% DMSO) are incubated for 30 minutes at 37° C. in assay buffer containing 50 mM Tris pH 7.4 and 0.03% SDS. The reaction is initiated by the addition of the fluorogenic peptide substrate, Suc-LLVY-AMC (Bachem I-1395), at a concentration of 40 μM. After 90 minutes of incubation at 37° C., fluorescence intensity is measured at λex=350 nm and λem=450 nm with a fluorescence reader (BMG Pherastar reader or equivalent).

Experiment [2] addresses Beta5 (purified human constitutive proteasome) (Homo sapiens, UniProt P28074). Put plainly: Determination of Beta5 activity (fluorescence intensity assay, Suc-LLVY-AMC). The experiment is classed as biochemical. Particulars: purified human constitutive proteasome 1.0 nM, 40 μM Suc-LLVY-AMC, 37° C. As for the experimental part:
Measurement of Beta5 inhibition is performed in 384 well format based on fluorescence intensity assay.
Purified human constitutive proteasome (1.0 nM) and serial diluted compounds in DMSO (range of concentrations from 10 μM to 38 pM) or controls (0.5% DMSO) are incubated for 30 minutes at 37° C. in assay buffer containing 50 mM Tris pH 7.4 and 0.03% SDS. The reaction is initiated by the addition of the fluorogenic peptide substrate, Suc-LLVY-AMC (Bachem 1-1395), at a concentration of 40 μM. After 90 minutes of incubation at 37° C., fluorescence intensity is measured at λex=350 nm and λem=450 nm with a fluorescence reader (BMG Pherastar reader or equivalent).

Take `O=C(CC(C(=O)N[C@@H](Cc1ccsc1)B(O)O)c1cccc(Cl)c1)c1ccccc1` (mixture of isomers) [Example 3, [(1R)-1-{[2-(RS)-(3-chlorophenyl)-4-oxo-4-phenylbutanoyl]amino}-2-(3-thienyl)ethyl]boronic acid]: in experiment [1], the “Selectivity LMP7 vs Beta5” value is given as “+++ (+++: Selectivity > 30)” and the IC50 is 50 to 500 nM. The molecule further gave a 50% inhibitory concentration (IC50) in experiment [2] greater than 5 µM.
In the same order, the values of `O=C(CC(C(=O)N[C@@H](Cc1ccsc1)B(O)O)c1ccc(Cl)cc1)c1ccccc1` (mixture of isomers) [Example 4, [(1R)-1-{[2-(RS)-(4-chlorophenyl)-4-oxo-4-phenylbutanoyl]amino}-2-(3-thienyl)ethyl]boronic acid] are “+++ (+++: Selectivity > 30)”, 50 to 500 nM and 0.5 to 5 µM.
For the molecule `CC(CC(=O)c1ccccc1)C(=O)N[C@@H](Cc1ccsc1)B(O)O` (mixture of isomers) [Example 10, [(1R)-1-[(2-(RS)-methyl-4-oxo-4-phenylbutanoyl)amino]-2-(3-thienyl)ethyl]boronic acid], the values for the IC50 in experiment [1] and in experiment [2] were 500 to 5000 nM and greater than 5 µM, respectively.
As to `COc1ccc(C(=O)CC(Cc2ccccc2)C(=O)N[C@@H](Cc2cccc(C(F)(F)F)c2)B(O)O)cc1` (mixture of isomers) [Example 27, {(1R)-1-{[2-(RS)-benzyl-4-(4-methoxyphenyl)-4-oxobutanoyl]amino}-2-[3-(trifluoromethyl)phenyl]ethyl}boronic acid], in experiment [1], the “Selectivity LMP7 vs Beta5” value is given as “+++ (+++: Selectivity > 30)” and the half-maximal inhibitory concentration (IC50) was less than 50 nM. Further, the IC50 in experiment [2] is 0.5 to 5 µM.
Turning to `O=C(N[C@@H](Cc1ccsc1)B(O)O)[C@H]1CCCC[C@@H]1C(=O)c1ccccc1` (racemic) [Example 2, [(1R)-1-({[(1RS,2RS)-2-benzoylcyclohexyl]carbonyl}amino)-2-(3-thienyl)ethyl]boronic acid], the IC50 in experiment [1] is 500 to 5000 nM; in experiment [2], greater than 5 µM.
For the molecule `O=C(N[C@@H](Cc1ccsc1)B(O)O)[C@H]1CCC[C@@H]1C(=O)c1ccccc1` (racemic) [Example 5, [1-({[(1RS,2SR)-2-benzoylcyclopentyl]carbonyl}amino)-2-(3-thienyl)ethyl]boronic acid], the IC50 in experiment [1] is 500 to 5000 nM; in experiment [2], greater than 5 µM.
For `CCc1cccc(C[C@H](NC(=O)[C@H](CC(=O)c2ccccc2)c2cccc(Cl)c2)B(O)O)c1` (single isomer, unassigned) [Example 14], the “Selectivity LMP7 vs Beta5” value in experiment [1] is “+++ (+++: Selectivity > 30)”. In addition, the 50% inhibitory concentration (IC50) lay within 50 to 500 nM in experiment [1] and 0.5 to 5 µM in experiment [2].
In the same order, the values of `CCc1cccc(C[C@H](NC(=O)[C@H](CC(=O)c2ccccc2)c2ccc(Cl)cc2)B(O)O)c1` (single isomer, unassigned) [Example 15] are “+++ (+++: Selectivity > 30)”, 50 to 500 nM and greater than 5 µM.
With `CCc1cccc(C[C@H](NC(=O)[C@@H](CC(=O)c2ccccc2)c2ccc(Cl)cc2)B(O)O)c1` (single isomer, unassigned) [Example 16], the IC50 was 500 to 5000 nM in experiment [1] and greater than 5 µM in experiment [2].
As to `COc1ccc(C(=O)C[C@H](Cc2ccccc2)C(=O)N[C@@H](Cc2ccsc2)B(O)O)cc1` (single isomer, unassigned) [Example 24], in experiment [1], the “Selectivity LMP7 vs Beta5” value is “+++ (+++: Selectivity > 30)”. The values for the half-maximal inhibitory concentration (IC50) in experiment [1] and in experiment [2] were less than 50 nM and 0.05 to 0.5 µM, respectively.
`COc1ccc(C(=O)C[C@@H](Cc2ccccc2)C(=O)N[C@@H](Cc2ccsc2)B(O)O)cc1` (single isomer, unassigned) [Example 25]: in experiment [1], the “Selectivity LMP7 vs Beta5” value is given as “+++ (+++: Selectivity > 30)” and the IC50 lay in the range of 50 to 500 nM. The molecule also gave an IC50 in experiment [2] greater than 5 µM.
Regarding `O=C(CCC(=O)c1ccccc1)N[C@@H](Cc1ccsc1)B(O)O` [Example 1, [(1R)-1-[(4-oxo-4-phenylbutanoyl)amino]-2-(3-thienyl)ethyl]boronic acid], the “Selectivity LMP7 vs Beta5” value in experiment [1] is “++ (++: 10 < Selectivity < 30)”. The IC50 lay within 50 to 500 nM in experiment [1] and 0.5 to 5 µM in experiment [2].
In the same order, the values of `CCc1cccc(C[C@H](NC(=O)CCC(=O)c2ccccc2)B(O)O)c1` [Example 6, {(1R)-2-(3-ethylphenyl)-1-[(4-oxo-4-phenylbutanoyl)amino]ethyl}boronic acid] are “+++ (+++: Selectivity > 30)”, 50 to 500 nM and greater than 5 µM.
For `CCc1cccc(C[C@H](NC(=O)CCC(=O)c2ccc(OC)cc2)B(O)O)c1` [Example 7, ((1R)-2-(3-ethylphenyl)-1-{[4-(4-methoxyphenyl)-4-oxobutanoyl]amino}ethyl)boronic acid], in experiment [1], the “Selectivity LMP7 vs Beta5” value is listed as “+++ (+++: Selectivity > 30)” and the IC50 fell in the range of 50 to 500 nM. This molecule also showed an IC50 in experiment [2] greater than 5 µM.
On to `CCc1cccc(C[C@H](NC(=O)CCC(=O)c2ccccc2OC)B(O)O)c1` [Example 8, ((1R)-2-(3-ethylphenyl)-1-{[4-(2-methoxyphenyl)-4-oxobutanoyl]amino}ethyl)boronic acid], for which the IC50 in experiment [1] was 50 to 500 nM; in experiment [2], greater than 5 µM.
Take `COc1ccc(C(=O)CCC(=O)N[C@@H](Cc2ccsc2)B(O)O)cc1` [Example 9, [(1R)-1-{[4-(4-methoxyphenyl)-4-oxobutanoyl]amino}-2-(3-thienyl)ethyl]boronic acid]: in experiment [1], the “Selectivity LMP7 vs Beta5” value is reported as “++ (++: 10 < Selectivity < 30)”. The IC50 in experiment [1] was in the range of 50 to 500 nM; in experiment [2], 0.5 to 5 µM.
The like results for `CCc1cccc(C[C@H](NC(=O)CCC(=O)c2ccc(OC)cc2OC)B(O)O)c1` [Example 11, [(1R)-1-{[4-(2,4-dimethoxyphenyl)-4-oxobutanoyl]amino}-2-(3-ethylphenyl)ethyl]boronic acid] were, in that order, “+++ (+++: Selectivity > 30)”, 50 to 500 nM and greater than 5 µM.
Turning to `COc1ccccc1C(=O)CCC(=O)N[C@@H](Cc1ccsc1)B(O)O` [Example 12, [(1R)-1-{[4-(2-methoxyphenyl)-4-oxobutanoyl]amino}-2-(3-thienyl)ethyl]boronic acid], the figures for the IC50 in experiment [1] and in experiment [2] were 500 to 5000 nM and greater than 5 µM, respectively.
`COc1ccc(C(=O)CCC(=O)N[C@@H](Cc2ccsc2)B(O)O)c(OC)c1` [Example 13, [(1R)-1-{[4-(2,4-dimethoxyphenyl)-4-oxobutanoyl]amino}-2-(3-thienyl)ethyl]boronic acid]: in experiment [1], the “Selectivity LMP7 vs Beta5” value is “++ (++: 10 < Selectivity < 30)” and the IC50 lay in the range of 50 to 500 nM. The concentration for half-maximal inhibition (IC50) in experiment [2] is greater than 5 µM.
Take `CCc1cccc(C[C@H](NC(=O)CCC(=O)c2ccc(-c3ccccc3)cc2)B(O)O)c1` [Example 17, [(1R)-1-[(4-biphenyl-4-yl-4-oxobutanoyl)amino]-2-(3-ethylphenyl)ethyl]boronic acid]: in experiment [1], the “Selectivity LMP7 vs Beta5” value is recorded as “++ (++: 10 < Selectivity < 30)” and the IC50 lay in the range of 50 to 500 nM. In experiment [2], this molecule registered an IC50 of 0.5 to 5 µM.
The like results for `CCc1cccc(C[C@H](NC(=O)CCC(=O)c2ccc3ccccc3c2)B(O)O)c1` [Example 18, ((1R)-2-(3-ethylphenyl)-1-{[4-(2-naphthyl)-4-oxobutanoyl]amino}ethyl)boronic acid] were, in that order, “+++ (+++: Selectivity > 30)”, 50 to 500 nM and 0.5 to 5 µM.
In the same order, the values of `CCc1cccc(C[C@H](NC(=O)CCC(=O)c2cccc(-c3ccccc3)c2)B(O)O)c1` [Example 19, [(1R)-1-[(4-biphenyl-3-yl-4-oxobutanoyl)amino]-2-(3-ethylphenyl)ethyl]boronic acid] are “++ (++: 10 < Selectivity < 30)”, 50 to 500 nM and 0.5 to 5 µM.
The like results for `O=C(CCC(=O)c1ccc(-c2ccccc2)cc1)N[C@@H](Cc1ccsc1)B(O)O` [Example 20, [(1R)-1-[(4-biphenyl-4-yl-4-oxobutanoyl)amino]-2-(3-thienyl)ethyl]boronic acid] were, in that order, “+ (+: Selectivity < 10)”, 50 to 500 nM and 0.5 to 5 µM.
Regarding `O=C(CCC(=O)c1ccc2ccccc2c1)N[C@@H](Cc1ccsc1)B(O)O` [Example 21, [(1R)-1-{[4-(2-naphthyl)-4-oxobutanoyl]amino}-2-(3-thienyl)ethyl]boronic acid], the “Selectivity LMP7 vs Beta5” value in experiment [1] is “++ (++: 10 < Selectivity < 30)”. In addition, the figures for the IC50 in experiment [1] and in experiment [2] were 50 to 500 nM and 0.5 to 5 µM, respectively.
For the molecule `CCc1cccc(C[C@H](NC(C)=O)B(O)O)c1` [Example 77, (R)-(1-acetamido-2-(3-ethylphenyl)ethyl)boronic acid], in experiment [1], the IC50 lay within 500 to 5000 nM.
